Test results reported in patent US9879050B2, “Substituted urea depsipeptide analogs as activators of the CLPP endopeptidase” (priority 2013, dated 2018).
≈ marks a conversion by molar mass, not a printed value. Where two headings read alike, the source gives them in different places. *1 amine or outer side, *2 acyl side, *3 side chain or, on linkers, in order; H or OH if unused. Where a SMILES comes first, the peptide text is derived from it. Bridges are numbered along the chain shown (N, C = ends). [ ]: non-standard residue; d: D form. The star is where a group is joined. ξ: configuration not given here. Phe(3,5-F2) = N[C@@H](Cc1cc(F)cc(F)c1)C(=O)O; NH(4-OCF3-phenyl) = FC(F)(F)Oc1ccc(N*)cc1; ξPro(4S-Me) = C[C@@H]1CNC(C(=O)O)C1; aThr = C[C@H](O)[C@H](N)C(=O)O; X1 = O=C(C1COCCN1[*:1])[*:2]; CO = O=C([*:1])[*:2]; ξP = O=C(O)C1CCCN1

Experiments:
Sa-ClpP [1] = target: T1, Sa-ClpP (Staphylococcus aureus, UniProt Q2G036); experiment: ClpP activation, EnzCheck Protease Assay with Bodipy-FL casein (second described method); assay type: biochemical, S. aureus
T1 construct: made in house; host or cells: E. coli BL21 (DE3)
Experimental: Alternatively, the assay was carried out using EnzCheck Protease Assay (Molecular Probes, Catalog #E6638). The assay was performed in black 384 well, flat bottom, low volume plates (Greiner Bio-One, Monroe, N.C., catalog #784076). 10 μL of Tris.HCl buffer, pH 8.0 with 0.01% Triton X-100 was pipetted into each well using a Well-Mate (Thermo Scientific, Waltham, Mass.). 0.4 μL test compounds or controls (2% DMSO v/v) were added to each well using a Biomek FX liquid handling robot (Beckman Coulter, Indianapolis Ind.). After addition of test compounds and controls, 10 μL of master mix containing 2 μM Sa-ClpP and 2 μM substrate (Bodipy-FL labeled casein) in Tris*HCl buffer, pH 8.0 with 0.01% (v/v) Triton X-100, was pipetted into each well. All assays were performed in triplicate, under linear velocity conditions. Increase in fluorescent signal following activation of Sa-ClpP by test compounds and controls was measured over time period of 30 mins using filters with excitation at 485±15 nm and emission at 520±25 nm on a PHERAstar FS Multilabel reader (BMG, Cary, N.C.). […] Data analysis was done by measuring rate of casein degradation over time (slopes). Computed degradation rates (slopes) were normalized to positive (ADEP4) or negative (DMSO) controls. Using nonlinear regression curve fitting EC50 values and % activation were determined using the equation “log [agonist]vs. Response-variable slope (four parameters)-symmetrical” in the program Prism 6 (GraphPad Software, La Jolla, Calif. USA, www.graphpad.com).

Sa-ClpP [2] = target: T1, Sa-ClpP; experiment: ADEP displacement fluorescence polarization assay; assay type: binding, S. aureus
Experimental: A fluorescence polarization (FP) assay was used to determine the activity of the disclosed compounds in displacing an ADEP analogue from ClpP. Briefly, the assay was performed in black 384 well, flat bottom, low volume plates (Greiner Bio-One, Monroe, N.C., catalog #784076). 20 μL of a pre-equilibrated (1 hr, room temperature) master mix (1 μM Sa-ClpP, 2% DMSO (v/v) and 50 nM FP probe in Tris*HCl, pH 8.0)) was pipetted into each well using a Well-Mate (Thermo Scientific, Waltham, Mass.). Sa-ClpP was prepared as described above for the ClpP activation assay. The FP probe was ADEP 2591 (structure shown above). The ADEP 2591 comprises a TAMRA fluorophore linked to a core based on modified ADEP 2378 via a short alkyl linker. Using pin transfer, approximately 0.4 μL (2% v/v DMSO) of each compound or control was added per well. After addition of compounds and controls, plates were allowed to incubate for an additional 120 minutes at room temperature. All assays were performed in triplicate. Polarization was monitored using an EnVision Multilabel reader (Perkin-Elmer, Waltham, Mass.) by exciting the FP probe at 530±25 nm, and monitoring fluorescence intensity of both parallel and perpendicular polarized light at 579±25 nm. Readout was in millipolarization units (mP).
Signal gain and G factors were determined in wells containing 20 μM ADEP 2378, which had been previously verified (data not shown) as containing completely unbound ADEP 2591. Data collected was normalized to values obtained from positive (20 μM ADEP 2378) or negative (DMSO) controls. Curves were fit with non-linear regression using the equation “log [inhibitor]vs. Response-variable slope (four parameters)-symmetrical” in the program Prism 6 (GraphPad Software, La Jolla, Calif. USA, www.graphpad.com). The structures for ADEP 2378 and ADEP 2591 are shown above. ADEP 2378 is (E)-N-((S)-1-(((2R,6S,8aS,14aS,20S,23aS)-2,6-dimethyl-5,8,14,19,23-pentaoxooctadecahydro-1H,5H,14H,19H-pyrido[2,1-i]dipyrrolo[2,1-c:2′,1′-1][1]oxa[4,7,10,13]tetraazacyclohexadecin-20-yl)amino)-1-oxo-3-phenylpropan-2-yl)pent-2-enamide. ADEP 2591 is 5-(3-(3-((6S,9S,11aS,17S,20aS)-6,10-dimethyl-5,8,11,16,20-pentaoxo-17-((S)-2-((E)-pent-2-enamido)-3-phenylpropanamido)hexadecahydro-1H,5H,16H-dipyrrolo[2,1-c:2′,1′-1][1]oxa[4,7,10,13]tetraazacyclohexadecin-9-yl)propyl)thioureido)-2-(6-(dimethylamino)-3-(dimethyliminio)-3H-xanthen-9-yl)benzoate.

[3] = Cytotoxicity assay, CellTiter-Glo cell viability; assay type: cell-based; conditions: African green monkey
Experimental: Cytotoxicity was determined by determining the effect of compounds on cell viability. Vero (kidney epithelial cells; ATCC CCL-81) monolayers were trypsinized and 5000 cells/well were seeded (10-15% confluency) into white-wall, flat bottom 96 well microwell plates (Corning) using enriched Dulbecco's Modified Eagle's Medium (Hyclone: DMEM/High Glucose) containing 10% Fetal Bovine Serum (ATCC-30-2020). Plates were incubated overnight at 37° C. in the presence of 5% CO2. Drug-free media was then replaced with media containing serial dilutions of test compound or DMSO carrier. After an additional 72 hours of incubation, viability was indirectly measured using the CellTiter-Glo® Luminescent Cell Viability (Promega) assay. Assay plates were read at peak emission wavelength of 560 nm using a EnVision® Multilabel Plate Reader (Perkin Elmer) or PHERAstar FS Multilabel reader (BMG, Cary, N.C.). […] USA, www.graphpad.com]. For each experiment, compounds were tested in duplicate. IC50 values presented are the range of two biologically independent experiments.

S. pneumoniae R6 = experiment: Minimal inhibitory concentration, microbroth dilution; assay type: cell-based
Experimental: Minimal inhibitory concentrations (“MICs”) were determined using the microbroth dilution method according to Clinical Laboratory Standards Institute (CLSI; National, C.F. C. L. S., Methods for Dilution Antimicrobial Susceptibility Tests for Bacteria Grow aerobically-Seventh Edition: Approved Standard M7-A7, CLSI, Wayne, Pa., USA, 2008) and were read by visual inspection. Two fold serial dilutions of test compound in 100 μL of the appropriate broth media were first prepared in 96-well round bottom microtiter plates (Nalgene Nunc International, Rochester, N.Y., USA). […] The plates were then incubated aerobically at 37° C. All strains were incubated overnight. After incubations, in all cases the MIC was recorded as the lowest concentration of drug that prevented bacterial growth. The bacterial strains for which MIC was determined as described in Table 4.

S. aureus USA 300 ΔClpP = experiment: as above; assay type: cell-based, Staphylococcus aureus; conditions: ClpP inactivated strain
Experimental: Minimal inhibitory concentrations (“MICs”) were determined using the microbroth dilution method according to Clinical Laboratory Standards Institute (CLSI; National, C.F. C. L. S., Methods for Dilution Antimicrobial Susceptibility Tests for Bacteria Grow aerobically-Seventh Edition: Approved Standard M7-A7, CLSI, Wayne, Pa., USA, 2008) and were read by visual inspection. Two fold serial dilutions of test compound in 100 μL of the appropriate broth media were first prepared in 96-well round bottom microtiter plates (Nalgene Nunc International, Rochester, N.Y., USA). An equivalent volume (100 μL) of bacterial broth inocula containing approximately 10^5 bacterial cfu/mL was added to each well to give final concentrations of test compound starting at 200 μM. The plates were then incubated aerobically at 37° C. All strains were incubated overnight. After incubations, in all cases the MIC was recorded as the lowest concentration of drug that prevented bacterial growth. The bacterial strains for which MIC was determined as described in Table 4.

[4] = Streptococcus pneumoniae, R6; read-out: Minimal Inhibitory Concentration S. pneumoniae R6

T1 sequence (Q2G036 whole entry): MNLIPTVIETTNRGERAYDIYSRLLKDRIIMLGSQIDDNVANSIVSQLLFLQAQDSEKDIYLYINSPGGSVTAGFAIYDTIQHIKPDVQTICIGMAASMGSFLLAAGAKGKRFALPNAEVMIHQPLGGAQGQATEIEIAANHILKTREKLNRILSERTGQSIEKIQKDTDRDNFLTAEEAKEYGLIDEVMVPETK

Structure (SMILES)	EC50 (Sa-ClpP [1]) [µM]	IC50 (Sa-ClpP [2]) [µM]	IC50 at 72 h [3] [µM]	MIC (S. pneumoniae R6; [4]) [µM]	IC50 at 72 h ([3]; Vero kidney epithelial cells (ATCC CCL-81), Vero cells, 72 hours, read-out: Cytotoxicity IC50) [µM]	Minimal Inhibitory Concentration S. aureus USA 300 ΔClpP (S. aureus USA 300 ΔClpP) [µM]	MIC (S. pneumoniae R6; Streptococcus pneumoniae, R6, read-out: Minimal Inhibitory Concentration S. pneumoniae R6) [µM]	EC50 (Sa-ClpP [1]; read-out: ClpP Activation EC50 (converted)) [µM]	IC50 (Sa-ClpP [2]; 1 μM Sa-ClpP, 50 nM FP probe ADEP 2591, read-out: ADEP Displacement IC50) [µM]
C[C@H]1CC2C(=O)O[C@@H](C)[C@H](NC(=O)[C@H](Cc3cc(F)cc(F)c3)NC(=O)Nc3ccc(OC(F)(F)F)cc3)C(=O)N3CCCC3C(=O)N(C)[C@@H](C)C(=O)N[C@@H](C)C(=O)N2C1 (stereo partly drawn) [Compound 28, (2S)-3-(3,5-Difluorophenyl)-N-((2S,6S,9S,11aS,17S,18S)-2,6,9,10,18-Pentamethyl-5,8,11,16,20-Pentaoxohexadecahydro-1H,5H,16H-Dipyrrolo[2,1-C:2′,1′-L][1]Oxa 1[4,7,10,13]Tetraazacyclohexadecin-17-Yl)-2-(3-(4-(Trifluoromethoxy)Phenyl)Ureido)Propanamide]	0.19 ± 0.01	5.6 ± 0.2	16.1 ± 2.4	0.029 (≈ 0.0247 µg/mL)					
C[C@H]1CC2C(=O)OC[C@H](NC(=O)[C@H](Cc3cc(F)cc(F)c3)NC(=O)Nc3ccc4c(c3)OCO4)C(=O)N3CCCC3C(=O)N3CCCCC3C(=O)N[C@@H](C)C(=O)N2C1 (stereo partly drawn) [Compound 46, (S)-2-(3-(Benzo[D][1,3]Dioxol-5-Yl)Ureido)-3-(3,5-Difluorophenyl)-N-((2S,6S,8aS,14aS,20S,23aS)-2,6-Dimethyl-5,8,14,19,23-Pentaoxooctadecahydro-1H,5H,14H,19H-Pyrido[2,1-I]Dipyrrolo[2,1-C:2′,1′-L][1]Oxa[4,7,10,13]Tetraazacyclohexadecin-20-Yl)Propanamide]	0.32 ± 0.02	4.61 ± 0.2		0.4 (≈ 0.33 µg/mL)	71.8 ± 5.4	200			
CN[C@@H]1[C@H](O)[C@H](NC)[C@H]2O[C@@]3(O)C(=O)C[C@@H](C)O[C@H]3O[C@@H]2[C@H]1O [Spectinomycin, spectinomycin, reference compound]						25	6.3 (≈ 2.09 µg/mL)		
C[C@H]1CC2C(=O)O[C@@H](C)[C@H](NC(=O)[C@H](Cc3cc(F)cc(F)c3)NC(=O)Nc3ccc(OC(F)(F)F)cc3)C(=O)N3CCCC3C(=O)N3CCOCC3C(=O)N[C@@H](C)C(=O)N2C1 (stereo partly drawn) [Compound 34, (S)-3-(3,5-Difluorophenyl)-2-(3-(4-(Trifluoromethoxy)Phenyl)Ureido)-N-((6aS,12S,13S,15aS,17S,21S,23aS)-13,17,21-Trimethyl-6,11,15,20,23-Pentaoxooctadecahydro-6H,11H,15H-[1,4]Oxazino[3,4-I]Dipyrrolo[2,1-C:2′,1′-L][1]Oxa[4,7,10,13]Tetraazacyclohexadecin-12-Yl)Propanamide] ({NH(4-OCF3-phenyl)-CO}-[Phe(3,5-F2)][aThr][ξP][X1]A[ξPro(4S-Me)]; ester 2-C)	0.33 ± 0.01	6.1 ± 0.4	26 ± 2.6	0.049 (≈ 0.0431 µg/mL)		50			
C[C@H]1CC2C(=O)O[C@@H](C)[C@H](NC(=O)[C@H](Cc3cc(F)cc(F)c3)NC(=O)Nc3ccc(OC(F)(F)F)cc3)C(=O)N3C[C@H](O)CC3C(=O)N(C)[C@@H](C)C(=O)N[C@@H](C)C(=O)N2C1 (stereo partly drawn) [Compound 32, (S)-3-(3,5-Difluorophenyl)-N-((2S,6S,9S,11aS,13R,17S,18S,20aS)-13-Hydroxy-2,6,9,10,18-Pentamethyl-5,8,11,16,20-Pentaoxohexadecahydro-1H,5H,16H-Dipyrrolo[2,1-C:2′,1′-L][1]Oxa[4,7,10,13]Tetraazacyclohexadecin-17-Yl)-2-(3-(4-(Trifluoromethoxy)Phenyl)Ureido)Propanamide]	0.4 ± 0.01	7 ± 0.4	28.3 ± 0.6	0.049 (≈ 0.0425 µg/mL)		100			
CCc1ccc(NC(=O)N[C@@H](Cc2cc(F)cc(F)c2)C(=O)N[C@@H]2C(=O)N3CCCC3C(=O)N(C)[C@@H](C)C(=O)N[C@@H](C)C(=O)N3C[C@@H](C)CC3C(=O)O[C@H]2C)cc1 (stereo partly drawn) [Compound 30, (S)-3-(3,5-Difluorophenyl)-2-(3-(4-Ethylphenyl)Ureido)-N-((2S,6S,9S,11aS,17S,18S,20aS)-2,6,9,10,18-Pentamethyl-5,8,11,16,20-Pentaoxohexadecahydro-1H,5H,16H-Dipyrrolo[2,1-C:2′,1′-L][1]Oxa[4,7,10,13]Tetraazacyclohexadecin-17-Yl)Propanamide]	0.43 ± 0.02	4 ± 0.1	28.8 ± 3.7	0.008 (≈ 0.00637 µg/mL)		50			
C[C@@H]1NC(=O)[C@H](C)N(C)C(=O)C2CCCN2C(=O)[C@@H](NC(=O)[C@H](Cc2cc(F)cc(F)c2)NC(=O)Nc2ccc(OC(F)(F)F)cc2)[C@H](C)OC(=O)C2CCCN2C1=O (stereo partly drawn) [Compound 27, (2S)-3-(3,5-Difluorophenyl)-N-((6S,9S,11aS,17S,18S)-6,9,10,18-Tetramethyl-5,8,11,16,20-Pentaoxohexadecahydro-1H,5H,16H-Dipyrrolo[2,1-C:2′,1′-L][1]Oxa[4,7,10,13]Tetraazacyclohexadecin-17-Yl)-2-(3-(4-(Trifluoromethoxy)Phenyl)Ureido)Propanamide]			10.5 ± 1.4	0.058 (≈ 0.0486 µg/mL)		100		0.31 ± 0.01	7.7 ± 0.2
